Assay results: patent US11358972B2, “Pentacyclic heterocycles” (Eisai R&D Management Co., Ltd., priority 2019, dated 2022)

Tests used:
[1] = system: Rat primary septal neuron culture; experiment: Measurement of acetylcholine (ACh) release in the rat primary septal neuron culture system; type: cell-based; details: 24 h, rat primary septal neurons, with NGF, ACh release measured by HPLC one day after compound addition, read-out: Concentration (μM) showing a 20% or more increase from the amount of ACh in the control group
Source text: Measurement of Acetylcholine (ACh) Release in the Rat Primary Septal Neuron Culture System
(1) Rat Primary Septal Neuron Culture
The septal area was isolated from Sprague-Dawley (SD) rats (Charles River Laboratories Japan, Inc.) at a fetal age of 18 days, and cultured. Specifically, fetuses were removed from pregnant rats under isoflurane anesthesia. The brain was extracted from each fetus, and immersed in ice-cooled L-15 medium (11415-064, Thermo Fisher Scientific). The septal area was dissected from the extracted brain under a stereoscopic microscope. The dissected septal area was treated in 0.25% trypsin (15050-065, Thermo Fisher Scientific) and 0.01% DNase (D5025-150KU, Sigma) at 37° C. for 30 minutes, thereby dispersing the cells. In this case, the enzyme reaction was terminated by adding inactivated horse serum (26050-088, Thermo Fisher Scientific). The enzyme-treated solution was centrifuged at 1000 rpm for 3 minutes, and the supernatant was removed. A medium in an amount of 10 mL was added to the obtained cell mass. The medium used was Dulbecco's Modified Eagle's Medium (044-29765, WAKO) supplemented with N2 supplement (17502-048, Thermo Fisher Scientific), 1 mM sodium pyruvate (11360-070, Thermo Fisher Scientific), and Penicillin-Streptomycin (15140-1221, Thermo Fisher Scientific). The cells of the cell mass to which the medium was added were redispersed by gentle pipetting, and then centrifuged again at 1000 rpm for 3 minutes, and the supernatant was removed. The medium in an amount of 10 mL was added to the obtained cell mass, and the cell dispersion was filtered through a 40-μm nylon mesh (Cell Strainer) to remove the cell mass, thereby obtaining a neuronal cell suspension. The neuronal cell suspension was diluted with the medium, and 10% inactivated bovine serum (26140-079, Thermo Fisher Scientific) and 10% inactivated horse serum were added. Thereafter, 100 μL/well of the suspension was seeded in a 96-well plate (354461, CORNING) pre-coated with poly-D-lysine so that the initial culture density was 1.2×10^5 cells/cm^2. After the seeded cells were cultured under 5% CO2-95% air in a 37° C. incubator for 2 days, the entire medium was replaced with 120 μL of fresh medium, and the cells were subsequently cultured for 5 days.
On the 7th day of culture, compounds were added in the following manner. A solution of the test compound in DMSO was diluted with the medium so that the concentration was 10 times higher than the final concentration. Nerve Growth Factor (450-01, PEPRO TECH, INC.) was prepared at […]. These two solutions were added each in an amount of 15 μL/well, and the mixture was mixed well. The final DMSO concentration was 0.1% or less. Moreover, only DMSO and NGF were added to the control group.
(3) ACh Release Measurement
One day after the compound addition, an amount of ACh release was measured by HPLC in the following manner. A warmed buffer was added at 100 μL/well to the well after the medium was eliminated, and the buffer was immediately removed. Thereafter, a buffer to which 10 μm choline, 10 μm physostigmine, and 6 mM KCl were added was added at 120 μL/well. The buffer was prepared by adding 125 mM NaCl, 25 mM 4-(2-hydroxyethyl)-1-piperazineethanesulfonic acid, 1.2 mM KH2PO4, 1.2 mM MgSO4, 2.2 mM CaCl2 (2H2O), and 10 mM glucose to sterilized water, and the final pH of the solution was set to 7.4. After the 96-well plate to which the buffer was added was incubated under 5% CO2-95% air in a 37° C. incubator for 40 minutes, 80 μL of buffer was collected. An internal standard solution IPHC (5×10^−7 M) was added in an amount of 6 μL to the collected buffer, and the buffer was transferred to a tube for HPLC measurement and subjected to HPLC measurement. […]

[2] = system: Choline Acetyltransferase (ChAT) mRNA; experiment: Measurement of choline acetyltransferase (ChAT) mRNA expression levels in the rat septal area; type: in vivo; details: po, 3 mg/kg orally, SD male rats, medial septum, 24 hours after administration, read-out: Amount (%) increased from the amount of ChAT mRNA expression levels in the vehicle administration group
Experimental: Measurement of Choline Acetyltransferase (ChAT) mRNA Expression Levels in the Rat Septal Area (1) Compound Administration
In this study, Sprague-Dawley male rats (Charles River Laboratories Japan, Inc.) with a body weight of about 250 to 350 g were used. The test compound was dissolved in 0.01 mol/L hydrochloric acid, and orally administered.
At 24 hours after the administration of the compound, the whole brain tissue was collected under pentobarbital anesthesia. The medial septum was isolated from whole brain on ice and frozen with liquid nitrogen, and then stored at −80° C.
(3) Measurement of ChAT mRNA Expression Levels
For RNA purification, RNeasy™ Plus Mini Kit (#74136: QIAGEN) was used in this study. RNA purification was performed by the method described in the kit After RNA purification, the total RNA concentration was measured by using QIAxpert Instrument (QIAGEN). cDNA was synthesized using SuperScript™ VILO™ cDNA Synthesis Kit (#11754: Thermo Fisher Scientific). The synthesis of cDNA was performed by the method described in the kit. The synthesized cDNA was diluted 4 times with RNase free water, and the diluted cDNA solution was used as a sample. Taqman™ Universal PCR Master Mix (#4304437: Thermo Fisher Scientific), Taqman™ Gene Expression Assays, INVENTORIED (#4331182: Thermo Fisher Scientific), RNase free water, and the cDNA solution were mixed in amounts of 10 μL, 1 μL, 4 μL, and 5 μL, respectively, and the resulting mixture was used as a measurement sample solution. Quantitative polymerase chain reaction (qPCR) was conducted using ABI PRISM™ 7900HT (Thermo Fisher Scientific) by a fluorescence probe method. Analysis was performed by SDS 2.4 (Thermo Fisher Scientific). The results were calculated by the percentage of the amount of ChAT mRNA expression levels in the compound administration group increased from the amount of ChAT mRNA expression levels in the vehicle administration group.

SMILES	minimal effective concentration [1]	change in vivo at 3 mg/kg [2]
COCCN1CCc2c(sc3nc4n(c(=O)c23)[C@H]2CCC[C@@H]2C(=O)N(C)C4)C1 [Example 16, (3aS,4aS)-10-(2-methoxyethyl)-5-methyl-2,3,3a,5,6,9,10,11,12,14a-decahydro-1H-cyclopenta[f]pyrido[4″,3″:4′,5′]thieno[2′,3′:4,5]pyrimido[1,2-a][1,4]diazepine-4,13-dione]	0.03 µM	42.5%
CN1Cc2nc3sc4c(c3c(=O)n2[C@@H]2CCC[C@@H]2C1=O)CCN(CC(F)F)C4 [Example 7, (3aS,14aR)-10-(2,2-difluoroethyl)-5-methyl-2,3,3a,5,6,9,10,11,12,14a-decahydro-1H-cyclopenta[f]pyrido[4″,3″:4′,5′]thieno[2′,3′:4,5]pyrimido[1,2-a][1,4]diazepine-4,13-dione]	0.3 µM	76.6%
